For one data set, the system named is HL-60/MX2. The data set is described as follows: Cell growth inhibition assay (resazurin, 48 h). The following applies: for EC50: HL-60/MX2, 48 h. The method, then: The DNA binding agent Mitoxantrone was included as a control, as HL-60/MX2 cells are reported to be resistant to this chemotherapeutic agent (Harker W. G. et al. 1989).
Concentrations ranging from 6.32 μM to 2 nM were tested for II-2 and II-4.
HL-60/MX2 is a multidrug resistant tumor cell line derived from the human promyelocytic leukemia cell line, HL-60 and expresses reduced topoisomerase II activity. […] Mitoxantrone, the topoisomerase II targeting agent was included as a control.

The values below come from patent US7579371B2, “Methods of using [3.2.0] heterocyclic compounds and analogs thereof” (Nereus Pharmaceuticals, Inc., priority 2004, dated 2009).

“And” between values parts separate entries of the source, which are not always exact repeats. Equal entries are not always repeated.

As for `C[C@@]12OC(=O)[C@]1([C@@H](O)[C@@H]1C=CCCC1)NC(=O)[C@@H]2CCCl` [Formula II-16, Salinosporamide A], the “% cytotoxicity” value with HL-60/MX2 (HL-60/MX2) is 84% and 89%; with HL-60 (HL-60) it was 88% and 91%. Further, the EC50 (commonly the midpoint of the concentration-response curve) in the data set with HL-60/MX2 worked out at 25 nM; with HL-60/MX2 (Homo sapiens, HL60/MX2, 48 h), 28 nM; with HL-60 (HL-60, 48 h), 30 nM; in the data set on RAW264.7 cells it was 3.6 nM. For the same compound, the “increase in the viability of LeTx-treated cells compared to LeTx treatment alone” value in the data set on RAW264.7 cells is on record as 10 fold.
